Experimental data from patent publication US7396645B1, “Cholestasis signature” (priority 2002, dated 2008).
Like-named read-outs stand apart in the source and are kept apart here. Marks after values point to notes of the source that are not given here.

Columns and labels:
male Sprague-Dawley rats = details: rat, in vivo, po
From the text: Compound dosing was based on the acute dose LD50s recorded in published reference or literature sources. […] The MTD (maximum tolerated dose) was then selected as the dose at which the animals […] 5-10% body weight during the 5-day range finding study. […] In addition, the clinical observations must show no or mild clinical signs during the whole of the range-finding study. At the next highest dose, signs and symptoms of adverse effects and exceeding those of the MTD should be seen to occur. Should these criteria not be met, the range-finding study is repeated using a modified dose range.
(§1) After determination of the MTD and FED for a compound, each compound was dissolved in a vehicle for administration on day 1 of the study (additional daily doses were stored as frozen aliquots from this initial formulation). Each compound was administered to three individual male Sprague-Dawley rats for each of the two doses (MTD and FED) for one of four different times (0.25 day, 1 day, 3 days, and 5 days), yielding a total of up to 24 animals per compound study. Vehicle choice was based on solubility of the compound, effect of food on adsorption, and the vehicles used in the literature reports examined during the FED selection investigations, described above. Generally, the route and vehicle in which the FED was defined are used. When there was a choice of routes and vehicles, oral routes were chosen over injection routes. Many compounds, especially oncolytics, are only administerable intravenously. In such cases, the compound was administered as an intravenous formulation into the tail vein. Orally administered compounds were given dissolved in either water, 1% carboxymethycellulose (CMC) or corn oil. Intravenously and intraperitoneally administered compounds were given in 0.9% saline. Subcutaneously administered compounds were given in corn oil. Animal body weights were determined at 1 day and, where appropriate, at 4 days, before necropsy, and clinical observations were made on a daily basis. Control animals were dosed with vehicle only. Three male animals were used for each dose and time combination used for the compound treatment.
(§2) Tissue Harvest and Handling: After the allocated treatment time, the tissues from the animals were harvested. […] All the tissues collected were divided to provide samples for histopathological analyses, and the remainder of each tissue was then snap-frozen. […] The parameters were measured using a Hitachi-911 clinical chemistry analysis instrument according to the manufacturer's instructions. The following blood constituents were measured: Blood Urea Nitrogen (BUN), Creatinine (CRE), Glucose (GLU), Alanine Transaminase (ALT), Aspartate Aminotrans-ferase (AST), Alkaline Phosphatase (ALP), Total Bilirubin (TBI), Sodium (SOD), Potassium (POT), Chloride (CHL), Phosphorus (PHO), Total Protein (TPR), Albumin (ALB), Cholesterol (CHO), Creatine Phosphokinase (CPK), Lactate Dehydrogenase (LDH), Carbon Dioxide (CO2), Uric Acid (UA), and Lipase. […] The parameters were measured using a Baker 9000 blood cell analysis instrument according to the manufactures instructions. The following blood constituents were measured: Leukocyte count (WBC), Differential Leukocyte counts, Erythrocyte count (RBC), Hemoglobin concentration (HGB), Hematocrit (HCT), Mean Corpuscular Volume (MCV), Mean Corpuscular Hemoglobin (MCH), Mean Corpuscular Hemoglobin Concentration (MCC), Thrombocyte Count (PLC). Histopathology: Histopathological analyses of hematoxylin and eosin-stained tissue sections were performed and peer-reviewed by board-certified (Diplomate, American College of Veterinary Pathologists) veterinary pathologists.

Cholestasis Signature = system: Cholestasis Signature
Protocol: as §1
as §2, with “pathologists. Preparation of Enriched mRNA: Punch Biopsies were Taken from the Frozen Tissues and were completely homogenized before being processed using the MagNA Pure robot. (Roche Diagnostics Corp., Indianapolis, Ind.) in combination with the MagNA Pure LC RNA Isolation kit II (Roche Diagnostics Corp). The amount of lysis buffer was adjusted to allow 1 ml per 50 mg for liver tissue, or 1 ml per 80 mg for all other tissues. After complete homogenization and before loading of the samples into the 32-well MagNA Pure plate, the samples were syringed 5-6 times using a 20-gauge 3-ml syringe to ensure a smooth solution for robotic processing. Tissue sample processing was performed in duplicate wells (loading 150 μl of homogenized sample and 150 μl of additional lysis buffer to each well) of the MagNA Pure LC, which is programmed to extract mRNA using oligo-dT selection technology into a final elution volume of 100 μl.” for “pathologists.”

livers of rats = system: livers of rats
Protocol: as §1
as §2, with “pathologists. Preparation of Enriched mRNA: Punch Biopsies were Taken from the Frozen Tissues and were completely homogenized before being processed using the MagNA Pure robot. (Roche Diagnostics Corp., Indianapolis, Ind.) in combination with the MagNA Pure LC RNA Isolation kit II (Roche Diagnostics Corp). The amount of lysis buffer was adjusted to allow 1 ml per 50 mg for liver tissue, or 1 ml per 80 mg for all other tissues. After complete homogenization and before loading of the samples into the 32-well MagNA Pure plate, the samples were syringed 5-6 times using a 20-gauge 3-ml syringe to ensure a smooth solution for robotic processing. Tissue sample processing was performed in duplicate wells (loading 150 μl of homogenized sample and 150 μl of additional lysis buffer to each well) of the MagNA Pure LC, which is programmed to extract mRNA using oligo-dT selection technology into a final elution volume of 100 μl.” for “pathologists.”

[1] = rat liver expression data vs Cholestasis Signature, maximum score of training treatments normalised to 100, dose and time not given

SMILES | Sequence Projection Score (SPS) (Cholestasis Signature; rat, in vivo) | further results
CC/C(=C(/CC)c1ccc(O)cc1)c1ccc(O)cc1 [DIETHYLSTILBESTROL, 3,4-bis-(4-hydroxyphenyl)-3-hexene] | 34* | raised serum levels of ALP and TBI compared with vehicle-treated control animals (male Sprague-Dawley rats): at least 2 fold; Fold change in serum alkaline phosphatase (male Sprague-Dawley rats; 300 mg/kg): 2.0 fold; Fold change in serum alkaline phosphatase and total bilirubin (male Sprague-Dawley rats; 300 mg/kg): 11.5 fold; Fold change in serum total bilirubin (male Sprague-Dawley rats; 300 mg/kg): 5.8 fold; increased hepatocyte enlargement and increased eosinophilic granular cytoplasm (livers of rats; rat, in vivo): mild to severe; nuclear/cytoplasmic condensation (apoptosis) and/or necrosis in liver (livers of rats; rat, in vivo): mild to moderate
CC(=O)N1CCN(c2ccc(OCC3COC(Cn4ccnc4)(c4ccc(Cl)cc4Cl)O3)cc2)CC1 (stereo not drawn) [KETOCONAZOLE] | 21 | –
CCCCCCCCc1ccc(O)cc1 [4-OCTYLPHENOL] | – | Sequence Projection Score (SPS) (Cholestasis Signature; [1]): 22
CC(C)n1c(/C=C/C(O)CC(O)CC(=O)O)c(-c2ccc(F)cc2)c2ccccc21 (stereo not drawn) [FLUVASTATIN] | 67* | –
CS(=O)(=O)Nc1ccc([N+](=O)[O-])cc1Oc1ccccc1 [NIMESULIDE] | 38* | –
C[C@]12CCC(=O)C=C1CC[C@@H]1[C@@H]2CC[C@@]2(C)[C@H]1CC[C@]2(C)O [17-METHYLTESTOSTERONE] | – | Sequence Projection Score (SPS) (Cholestasis Signature; [1]): 36*
CC1=C(CC(=O)O)c2cc(F)ccc2/C1=C\c1ccc([S+](C)[O-])cc1 (stereo not drawn) | 45* | –
O=C(O)Cc1ccccc1Nc1c(Cl)cccc1Cl [DICLOFENAC] | 41* | –
ClC(Cl)(Cl)Cl [CARBON TETRACHLORIDE] | – | Sequence Projection Score (SPS) (Cholestasis Signature; [1]): 50*
C#C[C@]1(OC(C)=O)CC[C@H]2[C@@H]3CCC4=CC(=O)CC[C@@H]4[C@H]3CC[C@@]21C [NORETHINDRONE ACETATE] | 23* | –
Clc1ccccc1C(c1ccccc1)(c1ccccc1)n1ccnc1 [CLOTRIMAZOLE, 1-(o-chloro-α,α-diphenylbenzyl)imidazole] | 33* | raised serum levels of ALP and TBI compared with vehicle-treated control animals (male Sprague-Dawley rats): at least 2 fold; Fold change in serum alkaline phosphatase (male Sprague-Dawley rats; 178 mg/kg): 1.4 fold; Fold change in serum alkaline phosphatase and total bilirubin (male Sprague-Dawley rats; 178 mg/kg): 2.9 fold; Fold change in serum total bilirubin (male Sprague-Dawley rats; 178 mg/kg): 2.0 fold; nuclear/cytoplasmic condensation (apoptosis) and/or necrosis in liver (livers of rats; rat, in vivo): mild to moderate; steatosis (livers of rats; rat, in vivo): moderate to very severe
C[C@]12CC[C@@H]3c4ccc(O)cc4CC[C@H]3[C@@H]1CC[C@@H]2O [BETA ESTRADIOL] | 26* | –
CC(C)c1c(C(=O)Nc2ccccc2)c(-c2ccccc2)c(-c2ccc(F)cc2)n1CC[C@@H](O)C[C@@H](O)CC(=O)O (relative stereo) [ATORVASTATIN, (R—(R*,R*))-2-(4-fluorophenyl)-β,δ-dihydroxy-5-(1-methylethyl)-3-phenyl-4-((phenylamino)carbonyl)-1H-pyrrole-1-heptanoic acid] | 62* | raised serum levels of ALP and TBI compared with vehicle-treated control animals (male Sprague-Dawley rats): at least 2 fold
CC#C[C@]1(O)CC[C@H]2[C@@H]3CCC4=CC(=O)CCC4=C3[C@@H](c3ccc(N(C)C)cc3)C[C@@]21C [MIFEPRISTONE] | 39* | –
CC[C@H](C)C(=O)O[C@H]1C[C@@H](C)C=C2C=C[C@H](C)[C@H](CC[C@@H]3C[C@@H](O)CC(=O)O3)[C@H]21 [LOVASTATIN] | 37* | –
Oc1c(Cl)cc(Cl)cc1Sc1cc(Cl)cc(Cl)c1O [BITHIONOL] | 23* | –
OC(Cn1cncn1)(Cn1cncn1)c1ccc(F)cc1F [FLUCONAZOLE] | 63* | –
COCc1c(C(C)C)nc(C(C)C)c(/C=C/[C@@H](O)C[C@@H](O)CC(=O)O)c1-c1ccc(F)cc1 [CERIVASTATIN] | 36* | –

SMILES | Sequence Projection Score (SPS) (Cholestasis Signature; rat, in vivo) | further results
CC(C)(Oc1ccc(CCNC(=O)c2ccc(Cl)cc2)cc1)C(=O)O [BEZAFIBRATE] | 42* | –
CN(Cc1cnc2nc(N)nc(N)c2n1)c1ccc(C(=O)N[C@@H](CCC(=O)O)C(=O)O)cc1 [METHOTREXATE] | 17 | –
C[C@]12CC[C@@H]3c4ccc(O)cc4CC[C@H]3[C@@H]1C[C@@H](O)[C@@H]2O [ESTRIOL] | 27* | –
CCOC(=O)C(C)(C)Oc1ccc(Cl)cc1 [CLOFIBRATE] | 22 | –
S=C=Nc1cccc2ccccc12 [1-NAPHTHYL ISOTHIOCYANATE, 1-naphthyl isothiocyanate] | – | Sequence Projection Score (SPS) (Cholestasis Signature; [1]): 90**
C[C@@H]1C[C@H]2[C@@H]3CCC4=CC(=O)C=C[C@]4(C)[C@@]3(F)[C@@H](O)C[C@]2(C)[C@@]1(O)C(=O)CO [DEXAMETHASONE] | 32* | –
CC(C)OC(=O)C(C)(C)Oc1ccc(C(=O)c2ccc(Cl)cc2)cc1 [FENOFIBRATE] | 43* | –
Nc1nc2nc[nH]c2c(=S)[nH]1 [THIOGUANINE] | 19 | –
CN(C)C=O [N,N-DIMETHYLFORMAMIDE] | – | Sequence Projection Score (SPS) (Cholestasis Signature; [1]): 27*
COc1ccc2c(c1)c(CC(=O)O)c(C)n2C(=O)c1ccc(Cl)cc1 [INDOMETHACIN] | 52* | –
CCO [ETHANOL] | – | raised serum levels of ALP and TBI compared with vehicle-treated control animals (male Sprague-Dawley rats): at least 2 fold; Fold change in serum alkaline phosphatase (male Sprague-Dawley rats; 3000 mg/kg): 1.5 fold; Fold change in serum alkaline phosphatase and total bilirubin (male Sprague-Dawley rats; 3000 mg/kg): 3.1 fold; Fold change in serum total bilirubin (male Sprague-Dawley rats; 3000 mg/kg): 2.0 fold; steatosis (livers of rats; rat, in vivo): moderate to very severe
COc1ccc2cc([C@H](C)C(=O)O)ccc2c1 [NAPROXEN] | 48* | –
CC(C)Cc1ccc(C(C)C(=O)O)cc1 (stereo not drawn) [IBUPROFEN] | 33* | –
CS(=O)(=O)c1ccc(C2=C(c3ccccc3)C(=O)OC2)cc1 [ROFECOXIB] | 27* | –
C#C[C@]1(O)CC[C@H]2[C@@H]3CCc4cc(O)ccc4[C@H]3CC[C@@]21C [ETHINYLESTRADIOL] | 61* | –
CCC(C)n1ncn(-c2ccc(N3CCN(c4ccc(OCC5COC(Cn6cncn6)(c6ccc(Cl)cc6Cl)O5)cc4)CC3)cc2)c1=O (stereo not drawn) [ITRACONAZOLE] | 17 | –
Clc1ccc(COC(Cn2ccnc2)c2ccc(Cl)cc2Cl)c(Cl)c1 (stereo not drawn) [MICONAZOLE, 1-[2,4-dichloro-β-(2,4-dichlorobenzyloxy)phenethyl]imidazole nitrate] | – | Sequence Projection Score (SPS) (Cholestasis Signature; [1]): 100**; increased hepatocyte enlargement and increased eosinophilic granular cytoplasm (livers of rats; rat liver histopathology, training-set treatments): mild to severe
Cc1cnc(NC(=O)C2=C(O)c3ccccc3S(=O)(=O)N2C)s1 [MELOXICAM] | 31* | –
